Measured values published in patent US10414759B2, “Phenylthiazoles and uses thereof” (Purdue Research Foundation, priority 2017, dated 2019).
Values after ≈ are worked out from the molar mass of the structure shown.

What was measured:
[1] = system: human keratinocytes (HaCaT); assay: In vitro cytotoxicity against HaCaT (MTS); type: cell-based; conditions: 2 h incubation
Procedure: Compound 17 was assayed at concentrations of 8, 16, 32, 64, 128, and 256 μg/mL against an immortal keratinocyte cell line (HaCaT) in order to determine the potential toxic effect against mammalian cells in vitro. Cells were cultured in Dulbeco's modified Eagle's medium (Sigma-Aldrich, St. Louis, Mo., USA) with 10% fetal bovine serum (USA Scientific, Inc.) at 37° C. with 5% CO2. Controls received DMSO alone at a concentration equal to that in drug-treated cell samples. The cells were incubated with the compounds in a 96-well plate at 37° C. and 5.0% CO2 for 2 h prior to addition of the assay reagent MTS 3-(4,5-dimethylthiazol-2-yl)-5-(3-carboxymethoxyphenyl)-2-(4-sulfophenyl)-2H-tetrazolium) (Promega, Madison, Wis., USA). Corrected absorbance readings (actual absorbance readings for each treatment […]) were taken using a kinetic ELISA microplate reader (Molecular Devices, Sunnyvale, Calif., USA). The quantity of viable cells after treatment with each compound is expressed as a percentage of the control, DMSO.

MRSA (2658 RCMB) = assay: MIC against MRSA (2658 RCMB), broth dilution; type: cell-based, Staphylococcus aureus
Method in brief: (§1)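 Broth dilution in cation-adjusted Mueller-Hinton broth with an inoculum of about 5×10^5 CFU/mL (from a 0.5 McFarland suspension), using triplicate serial dilutions. MIC was the lowest concentration with no visible growth by visual inspection, reported as the mean of triplicates.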

NRS72 (MSSA) = assay: MIC/MBC clinical isolate panel (Table 3); type: cell-based, S. aureus; conditions: Staphylococcus aureus, Table 3, NRS72 (MSSA)
Method in brief: as §1

NRS119 (MRSA) = assay: MIC/MBC clinical isolate panel (Table 3); type: cell-based, S. aureus; conditions: Staphylococcus aureus, Table 3, NRS119 (MRSA)
Method in brief: as §1

[2] = PBS solubility screen (turbidometric); type: physicochemical; conditions: aqueous buffer, kinetic from dmso stock
Procedure: The solutions were diluted 100-fold into PBS in a 96-well plate and mixed. The absorbance of the PBS-containing plate was measured prior to addition of the test agents to determine the background absorbance. After 2 h, the presence of precipitate was detected by turbidity (absorbance at 540 nm). […] The solubility limit is reported as the highest experimental concentration with no evidence of turbidity.

For CCCCc1ccc(-c2nc(C)c(-c3ccnc(NN)n3)s2)cc1 [Compound 17, 2-(4-Butylphenyl)-5-(2-hydrazinopyrimidin-4-yl)-4-methylthiazole], the “nontoxic up to a concentration of” value [1] was 64 µg/mL, the “improvement in MIC value compared with lead compound 1” value (MRSA (2658 RCMB); MRSA (2658 RCMB)) was 12 fold and the MIC (MRSA (2658 RCMB); Staphylococcus aureus, Table 1, MRSA (2658 RCMB), read-out: MIC ± SD) was 0.4 µg/mL (≈ 1.18 µM). The “antibacterial (anti-MRSA) activity, in words” value (MRSA (2658 RCMB); Table 1) was “more potent than vancomycin”, the “MIC ± SD” value (MRSA (2658 RCMB); Table 1, MRSA (2658 RCMB)) was 0.40 ± 0.0 µg/mL (≈ 1.18 µM) and the MBC (NRS72 (MSSA)) was 8 µg/mL (≈ 23.6 µM). The MIC (NRS72 (MSSA); read-out: MIC) was 2 µg/mL (≈ 5.89 µM), the MBC (NRS119 (MRSA)) was 2 µg/mL (≈ 5.89 µM) and the MIC (NRS119 (MRSA); read-out: MIC) was 2 µg/mL (≈ 5.89 µM). For the same molecule, the solubility at 2 h [2] was 55 µM (≈ 18.7 µg/mL).
